# According to US20250205195A1, “BENZYLOXY-BENZYLAMINYL AMINO ACID DERIVATIVE FOR ADJUSTING TSLP/TSLPR SIGNAL TRANSMISSION” (AMTIXBIO CO., LTD., priority 2021, published 2025):
# Test system: TSLP
# Assay: TNF-α-induced TSLP in HaCaT cells (ELISA)
# Format: cell-based, human
# Conditions: HaCaT culture supernatant, TNF-α stimulated, 1 h pretreatment, equal amounts of compounds
# Procedure: Human keratinocyte HaCaT cells (obtained from the Korean Cell Line Bank) were seeded in a 12-well plate at an initial density of 2×10^5 cells/well and cultured at 37° C. for 16 to 24 hours. FK506 (Sigma), compounds 27 and 29 of the present invention were then added to the HaCaT cell culture medium at final concentrations of 0, 1, 2, 4, and 8 µg/mL, and the cells were cultured at 37° C. for 1 hour. Next, to induce TSLP, the culture medium was treated with TNF-α (Sigma-Aldrich, USA) to a final concentration of 100 ng/mL, and the cells were cultured for an additional 24 hours at 37° C. The culture supernatant was collected, and the amount of induced TSLP from HaCaT cells was determined using an ELISA kit (R&D Systems, USA) according to the manufacturer's instructions. […] Under the same conditions, to compare the TSLP reduction efficiency R.R. (Reduction rate) of compound 27, positive control compound and compound 29, equal amounts of compounds 27, 29 and FK506 (Sigma-Aldrich, USA) were pretreated for 1 hour. The amount of TSLP released into the culture supernatant from HaCaT cells stimulated by TNF-α was quantitatively analyzed and presented in Table 3 and FIG. 3 (c).
smiles,measurement,value
"CCC(NC)C(=O)NCc1ccc(OCc2ccc(Cl)cc2)cc1 (racemic) [Compound 29, (R)/(S)—N-(4-((4-chlorobenzyl)oxy)benzyl)-2-(methylamino)butanamide]",R.R (Reduction rate) of TSLP,58%
same,TSLP,210 ng/mL
